Converted amounts (≈) assume the structure as drawn. Like-named read-outs stand apart in the source and are kept apart here. Blank lines part the entries; values can stand above or below the compound they belong to.
Legend:
[1] = tested on: Acinetobacter baumannii; test: antibacterial activity in vitro, agar dilution method; assay type: cell-based
Source text: (§1) The antibacterial spectrum and in vitro antibacterial activity of the compound of the present invention
(§2) Experimental method: the agar dilution method, with reference to Clinical And Laboratory Standards Institute. Methods for Dilution Antimicrobial Susceptibility Tests for Bacteria That Grow Aerobically; Approved Standard-Seventh Edition. CLSI Document M7-A7. Vol 26, no. 2, Wayne, Pa.: Clinical and Laboratory Standards Institute, 2006.
(§3) Wherein MIC represents the minimum inhibitory concentration, MIC90 represents the 90% inhibitory concentration.

[2] = tested on: Escherichia coli; test: as above; assay type: cell-based
Source text: as §1, §2, §3

[3] = tested on: Klebsiella pneumoniae; test: as above; assay type: cell-based
Source text: as §1, §2, §3

[4] = tested on: Methicillin-resistant Staphycoccus epidermidis (MRSE); test: as above; assay type: cell-based; conditions: Staphylococcus epidermidis, Table 2
Source text: as §1, §2, §3

[5] = tested on: Methicillin-resistant Staphylococcus aureus (MRSA); test: as above; assay type: cell-based
Source text: as §1, §2, §3

[6] = tested on: Streptococcus pyogenes; test: as above; assay type: cell-based; conditions: Table 2
Source text: as §1, §2, §3

[7] = in vivo pharmacokinetics experiment in rats (Test Example 2); conditions: male, SD, rat, plasma
Procedure: Test animals: male SD rats, weighing 230-250 g, purchased from Shanghai SLAC Laboratory Animals Co., Ltd., Certificate of Conformity: SCXK (SH) 2007-0005 22045; Six rats were tested for each compound.
Test substances: Compound 2 of the present invention, prepared in accordance with the method of Example 3; dissolved in physiological saline.
Internal standard substance: The acetonitrile solution of 50 ng/ml KBP-5747 was used as an internal standard solution in the measurement of Compound 2.
Administration of Compound 2 of the present invention: intravenous bolus injection (iv), dose: 5 mg/kg, administrating volume: 5 mL/kg; gavage (po), dose: 5 mg/kg, administrating volume: 5 mL/kg. Prior to administration help but water fasting for 12 hours, 4 hours after administration to food.
iv blood sampling time point: denoted by 0 min before administration, 5 min, 15 min, 30 min, 1 h, 2 h, 4 h, 8 h, 24 h, 30 h, 48 h after administration
po blood sampling time point: denoted by 0 min before administration, 5 min, 15 min, 30 min, 1 h, 2 h, 4 h, 8 h, 24 h, 30 h, 48 h after administration
Each time point to take around 150 μl whole blood, centrifugated at 2000×g at 4° C. for 5 minutes in a low-temperature high-speed centrifuge to separate plasma, the resulting plasma frozen was at −70° C. in a refrigerator.
Plasma samples analysis: 30 μl of plasma was taken and added 100 μl of internal standard solution, subjected to vortex at 14,000 rev/min for 5 minutes, then to centrifugation at 12,000 rpm/min for 5 minutes. The supernatant was taken and analyzed using LC-MS/MS.
Formula Absolute Bioavailability F%=[AUC]INF (po)×Dose(iv)/[AUC]INF (iv)×Dose(po)

[8] = tested on: Acinetobacter calcoaceticus; test: antibacterial activity in vitro, agar dilution method; assay type: cell-based; conditions: Table 4
Source text: as §1, §2, §3

[9] = tested on: Enterococcus faecalis; test: as above; assay type: cell-based; conditions: Table 4
Source text: as §1, §2, §3

[10] = tested on: Hemophilus influenzae; test: as above; assay type: cell-based; conditions: Haemophilus influenzae; Table 5; MIC90 = 90% inhibitory concentration
Source text: as §1, §2, §3

[11] = tested on: Staphylococcus aureus; test: as above; assay type: cell-based
Source text: as §1, §2, §3

[12] = tested on: Streptococcus constellatus; test: as above; assay type: cell-based; conditions: Table 5, MIC90 = 90% inhibitory concentration
Source text: as §1, §2, §3

[13] = tested on: Streptococus agalactiae; test: as above; assay type: cell-based; conditions: Table 4
Source text: as §1, §2, §3

[14] = tested on: Staphylococcus aureus; test: bactericidal effects in vivo in neutropenic mouse thigh model with Staphylococcus aureus infection; design: species or system mice; conditions: for change values (24 h vs blank group mean 0 h) / log10 CFU for each thigh, mean ± standard deviations (24 h): 2 dose times, subcutaneous
Procedure: Bactericidal Effects of the Present Compounds In Vivo in Mouse Thigh Model with Staphylococcus aureus Infection SPF grade CD-1 (ICR) female mice housed in SPF environment, weighing 25±2 g, purchased from Beijing Vital River Laboratory Animal Technology Co., Ltd., licensed […] No: SCXK (Beijing) 2006-0009. Staphylococcus aureus: purchased from Shanghai Renji Hospital. Four days before bacterial infection, intraperitoneal (ip) injection of cyclophosphamide 150 mg/kg; 1 day before bacterial infection, intraperitoneal (ip) injection of cyclophosphamide 100 mg/kg; Picked fresh Staphylococcus aureus single colonies which were plate cultured for 18 h, and inoculated into broth and cultured at 35° C. for 18 h. The bacterial suspension was diluted with broth, and 0.5 McFarland turbidity standard indicator bacteria suspension was prepared with a McFarland turbiditor, 10-fold diluted with broth and injected into the thigh muscle of mice in an amount of 0.1 mL for each thigh. The concentration of the bacteria suspension was about 10^6-10^7 CFU/ml. The inoculum concentration was determined by an agar-plate count method. Blank Group: the animals were sacrificed by dislocation at 2 h (recorded as 0 h) after the inoculation of bacteria. Solvent group: The first administration time was set at 2 h (denoted as 0 h) after the animals were infected with bacteria, the solvent was subcutaneously administrated, the animals were sacrificed by dislocation at 24 h after the administration. Treatment group: The first administration time was set at 2 h (denoted as 0 h). […] The thigh muscle tissue was separated from the sacrificed animals, and 5 mL of sodium chloride injection was added, homogenated. The homogenate obtained were diluted series, taken 0.05 mL and inoculated to agar plates, two plates were inoculated in parallel for each gradient bacterial suspension, and incubated at 35° C. for 18 h. Observe the growth of the colonies on each plate, and select the plates with the number of colonies between 30-300 for colony count. The number of colonies was recorded as n1, n2. N represents the diluted fold. The number of colonies (units CFU) for each thigh was calculated according to the formula of “(n1+n2)/2/0.05×5×N”. A logarithm to the base 10 for the number of colonies of each thigh was calculated to obtain log10 CFU value for each thigh.

[15] = Table 2, agar dilution, read-out: antibacterial activity MIC, Acinetbacter baumannii
[16] = Table 5, MIC90 = 90% inhibitory concentration

MIC [1, 15]: 0.5 µg/mL (≈ 0.867 µM)
MIC ([2]; Table 2): 1 µg/mL (≈ 1.73 µM)
MIC ([3]; Table 2): 4 µg/mL (≈ 6.94 µM)
MIC [4]: 0.25 µg/mL (≈ 0.434 µM)
MIC ([5]; Table 2, agar dilution): 0.5 µg/mL (≈ 0.867 µM)
MIC [6]: 0.125 µg/mL (≈ 0.217 µM)
AUC(0-inf) ([7]; iv, 5 mg/kg): 2290 ng·h/mL
clearance ([7]; iv, 5 mg/kg): 37.2 mL/min/kg
half-life ([7]; iv, 5 mg/kg): 4.07 h
Vd ([7]; iv, 5 mg/kg, read-out: Vss): 5.12 L/kg
bioavailability ([7]; po 5 mg/kg vs iv 5 mg/kg, read-out: F % (absolute bioavailability)): 33.9%
AUC(0-inf) ([7]; po (gavage), 5 mg/kg): 777 ng·h/mL
Cmax ([7]; po (gavage), 5 mg/kg): 251 ng/mL
Tmax ([7]; po (gavage), 5 mg/kg): 1 h
half-life ([7]; po (gavage), 5 mg/kg): 2.32 h
Compound: CN(C)c1cc(CNC2CC(F)(F)C2)c(O)c2c1C[C@H]1C[C@H]3[C@H](N(C)C)C(O)=C(C(N)=O)C(=O)[C@@]3(O)C(O)=C1C2=O [Compound 2, (4S,4aS,5aR,12aS)-9-((3,3-difluorocyclobutylamino)methyl)-4,7-bis(dimethylamino)-3,10,12,12a-tetrahydroxy-1,1′-dioxo-1,4,4a,5,5a,6,11,12a-octahydrotetracene-2-carboxamide]

MIC [1, 15]: 2 µg/mL (≈ 3.59 µM)
MIC ([1]; Table 4, agar dilution, read-out: antibacterial activity MIC, Acinetobacter baumannii): 4 µg/mL (≈ 7.19 µM)
MIC90 [1, 16]: 8 µg/mL (≈ 14.4 µM)
MIC [8]: 0.5 µg/mL (≈ 0.898 µM)
MIC [9]: 0.25 µg/mL (≈ 0.449 µM)
MIC ([2]; Table 2): 1 µg/mL (≈ 1.8 µM)
MIC ([2]; Table 4): 4 µg/mL (≈ 7.19 µM)
MIC90 [10]: 1 µg/mL (≈ 1.8 µM)
MIC ([3]; Table 2): 4 µg/mL (≈ 7.19 µM)
MIC ([3]; Table 4): 8 µg/mL (≈ 14.4 µM)
MIC [4]: 0.5 µg/mL (≈ 0.898 µM)
MIC ([5]; Table 2, agar dilution): 0.5 µg/mL (≈ 0.898 µM)
MIC ([5]; Table 4, agar dilution): 2 µg/mL (≈ 3.59 µM)
MIC90 [5, 16]: 2 µg/mL (≈ 3.59 µM)
MIC90 ([11]; Staphylococcus aureus, Table 5, MIC90 = 90% inhibitory concentration): 0.5 µg/mL (≈ 0.898 µM)
MIC ([11]; Table 10, Staphylococcus aureus of the thigh model): 0.5 µg/mL (≈ 0.898 µM)
MIC90 [12]: 0.5 µg/mL (≈ 0.898 µM)
MIC [6]: 0.25 µg/mL (≈ 0.449 µM)
MIC [13]: 0.5 µg/mL (≈ 0.898 µM)
Compound: CN(C)c1cc(CNCC(C)(C)C)c(O)c2c1C[C@H]1C[C@H]3[C@H](N(C)C)C(O)=C(C(N)=O)C(=O)[C@@]3(O)C(O)=C1C2=O [PTK-0796, reference compound]
change values (24 h vs blank group mean 0 h) ([14]; 2 mg/kg/day): 1.77 log10 CFU
log10 CFU for each thigh, mean ± standard deviations (24 h) ([14]; 2 mg/kg/day): 8.16 ± 0.13 log10 CFU
bacteria growing values of each thigh ([14]; 6 mg/kg/day): 1.20
bactericidal effect against Staphylococcus aureus in vivo in mice ([14]; 6 mg/kg/day): did not show bactericidal effect
change values (24 h vs blank group mean 0 h) ([14]; 6 mg/kg/day): 1.20 log10 CFU
log10 CFU for each thigh, mean ± standard deviations (24 h) ([14]; 6 mg/kg/day): 7.59 ± 0.21 log10 CFU
change values (24 h vs blank group mean 0 h) ([14]; 18 mg/kg/day): −1.05 log10 CFU
log10 CFU for each thigh, mean ± standard deviations (24 h) ([14]; 18 mg/kg/day): 5.34 ± 0.79 log10 CFU

From patent US9365499B2, “9-aminomethyl substituted tetracycline compounds” (KBP Biosciences Co., Ltd., priority 2011, dated 2016)
